Measured values as given in patent US8404677B2, “Kinase inhibitors” (Genosco, priority 2009, dated 2013).

Key:
MDA-MB-435 = assay: cells; format: cell-based; details: MDA-MB-435 (Melanoma)
COLO 205 = assay: cells; format: cell-based; details: COLO 205 (Colon Cancer)
DU-145 = assay: cells; format: cell-based; details: DU-145 (Prostate Cancer)
NCI/ADR-RES = assay: cells; format: cell-based; details: NCI/ADR-RES (Ovarian Cancer)
NCI-H322M = assay: cells; format: cell-based; details: NCI-H322M (NSCLC)
KM12 = assay: cells; format: cell-based; details: KM12 (Colon Cancer)
RXF 393 = assay: cells; format: cell-based; details: RXF 393 (Renal Cancer)
SK-MEL-28 = assay: cells; format: cell-based; details: SK-MEL-28 (Melanoma)
OVCAR-3 = assay: cells; format: cell-based; details: OVCAR-3 (Ovarian Cancer)
NCI-H522 = assay: cells; format: cell-based; details: NCI-H522 (NSCLC)
human ZAP70 = biological target: T1, human ZAP70 (Homo sapiens, UniProt P43403); assay: Inhibition of enzymatic kinase activity (LANCE Ulight); format: biochemical; details: at 1 μM concentration; read-out: ZAP70 percentage inhibition
T1 construct: Purified full-length human SYK, ZAP70, PIM1, PYK2; purchased Carna Biosciences
T1 sequence (P43403 1-619): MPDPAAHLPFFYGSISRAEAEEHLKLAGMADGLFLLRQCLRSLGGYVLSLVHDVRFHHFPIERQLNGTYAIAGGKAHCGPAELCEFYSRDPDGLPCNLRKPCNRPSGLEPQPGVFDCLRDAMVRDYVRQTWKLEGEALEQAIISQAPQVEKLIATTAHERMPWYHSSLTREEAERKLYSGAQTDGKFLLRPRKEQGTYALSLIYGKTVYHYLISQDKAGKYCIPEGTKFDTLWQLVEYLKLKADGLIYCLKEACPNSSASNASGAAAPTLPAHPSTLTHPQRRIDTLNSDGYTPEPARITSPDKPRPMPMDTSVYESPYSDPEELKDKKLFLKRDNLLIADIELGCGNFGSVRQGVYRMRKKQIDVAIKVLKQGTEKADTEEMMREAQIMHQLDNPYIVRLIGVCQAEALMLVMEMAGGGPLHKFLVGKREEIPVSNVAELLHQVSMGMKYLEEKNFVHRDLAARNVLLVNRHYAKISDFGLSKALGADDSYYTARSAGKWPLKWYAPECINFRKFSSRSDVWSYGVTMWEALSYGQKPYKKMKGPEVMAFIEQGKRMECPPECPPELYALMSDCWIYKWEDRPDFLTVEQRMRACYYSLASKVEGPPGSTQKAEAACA

CCRF-CEM = assay: cells; format: cell-based; details: CCRF-CEM (Leukemia)
A549/ATCC = assay: cells; format: cell-based; details: A549/ATCC (NSCLC)
[1] = system: TNF-α release in THP-1 cells, IgG stimulation; assay: SYK dependent TNF-α release assay (IgG stimulation); format: cell-based, human
Experimental: Compounds of the invention were tested for their TNF-α release effect on THP-1 cells. For SYK dependent TNF-α release assay (i.e., via IgG stimulation), THP-1 cells derived from human monocytic cells were obtained from the American Type Culture Collection (ATCC, Manassas, Va.). This cell line was maintained with an Roswell Park Memorial Institute (RPMI) medium (GIBCO™) containing 10 fetal bovine serum (FBS; GIBCO™) and 0.05 mM 2-mercaptoethanol. The THP-1 cells were seeded at 1×10^5 cells/100 μL/well into human IgG ([…], INVITROGEN™)-coated 96 well culture plate, and serially diluted compound was then added. After an 18-hour incubation period at 37° C., supernatants were collected for the determination of the TNF-α level by enzyme-linked immunosorbent assay (ELISA), and the remaining cells were subjected to an MTT (yellow tetrazolium salt) assay to determine the cytotoxic effects of compound.

[2] = Homo sapiens, read-out: LC50 (the source's name)

In the case of `O=c1[nH]ccc2nc(N3CCC(O)CC3)nc(Nc3cccc(C(F)(F)F)c3)c12` [Compound 6, 2-(4-hydroxypiperidin-1-yl)-4-(3-(trifluoromethyl)phenylamino)pyrido[4,3-d]pyrimidine-5(6H)-one], the GI50 (MDA-MB-435; Homo sapiens) is reported as 1.29 µM, the IC50 (MDA-MB-435; Homo sapiens) is reported as 2.57 µM and the CC50 (MDA-MB-435; [2]) is reported as 9.77 µM. For the same molecule, the TGI (MDA-MB-435) was 3.55 µM, the TGI (COLO 205) was 14.5 µM and the GI50 (COLO 205; Homo sapiens) was 3.09 µM. It also gave an IC50 (COLO 205; Homo sapiens) of 5.25 µM, a CC50 (COLO 205; [2]) of 45.7 µM and a TGI (DU-145) of 19.5 µM. For the same molecule, the GI50 (DU-145; Homo sapiens) was 1.55 µM, the IC50 (DU-145; Homo sapiens) was 6.03 µM and the CC50 (DU-145; [2]) was 100 µM. It also gave a GI50 (NCI/ADR-RES; Homo sapiens) of 2.34 µM, an IC50 (NCI/ADR-RES; Homo sapiens) of 4.37 µM and a CC50 (NCI/ADR-RES; [2]) of 100 µM. The TGI (NCI/ADR-RES) was 7.41 µM, the GI50 (NCI-H322M; Homo sapiens) was 2.29 µM and the IC50 (NCI-H322M; Homo sapiens) was 21.4 µM. It also gave a CC50 (NCI-H322M; [2]) of 100 µM, a TGI (NCI-H322M) of 28.8 µM and a GI50 (KM12; Homo sapiens) of 1.45 µM. For the same molecule, the IC50 (KM12; Homo sapiens) was 2.69 µM, the CC50 (KM12; [2]) was 24 µM and the TGI (KM12) was 5.37 µM. It also gave a GI50 (RXF 393; Homo sapiens) of 1.45 µM, an IC50 (RXF 393; Homo sapiens) of 21.4 µM and a CC50 (RXF 393; [2]) of 100 µM. The TGI (RXF 393) was 23.4 µM, the GI50 (SK-MEL-28; Homo sapiens) was 4.68 µM and the IC50 (SK-MEL-28; Homo sapiens) was 11 µM. It also gave a CC50 (SK-MEL-28; [2]) of 50.1 µM, a TGI (SK-MEL-28) of 17.4 µM and a GI50 (OVCAR-3; Homo sapiens) of 1.35 µM. The IC50 (OVCAR-3; Homo sapiens) was 3.63 µM, the CC50 (OVCAR-3; [2]) was 46.8 µM and the TGI (OVCAR-3) was 3.98 µM. It also gave a GI50 (NCI-H522; Homo sapiens) of 2.34 µM, an IC50 (NCI-H522; Homo sapiens) of 7.59 µM and a CC50 (NCI-H522; [2]) of 34.7 µM. For the same molecule, the TGI (NCI-H522) was 10 µM, the inhibition at 1 µM (human ZAP70) was 49% and the TGI (CCRF-CEM) was 100 µM. For the same molecule, the GI50 (CCRF-CEM; Homo sapiens) was 2.09 µM, the IC50 (CCRF-CEM; Homo sapiens) was 4.07 µM and the LC50 (CCRF-CEM; Homo sapiens) was 100 µM. For the same molecule, the TGI (A549/ATCC) was 100 µM, the GI50 (A549/ATCC; Homo sapiens) was 3.8 µM and the IC50 (A549/ATCC; Homo sapiens) was 6.31 µM. It also gave a CC50 (A549/ATCC; [2]) of 100 µM, an inhibition at 0.3 µM ([1]; Homo sapiens, IgG stimulation, At 0.3 μM, THP-1, read-out: Inhibition of TNF-α Release (percentage inhibition)) of 51.9% and an inhibition at 1 µM ([1]; Homo sapiens, IgG stimulation, At 1 μM, THP-1, read-out: Inhibition of TNF-α Release (percentage inhibition)) of 83%. The “percentage inhibition of TNF-α release compared with R406” value ([1]; IgG stimulated release, 0.3 μM) was “greater than those exhibited by R406”.
